We go through four molecules from ChEMBL document CHEMBL2202990, “(R)- and (S)-4-Amino-3-(trimethylsilyl)methylbutanoic acids ameliorate neuropathic pain without central nervous system-related side effects” (Bioorg Med Chem Lett, 2012).

Data set [1] deals with Rattus norvegicus. The experiment in a line: Toxicity against CD rat SNL pain model assessed as hypalgesic activity on the contralateral side of paw at 40 mg/kg, po at 90 mins relative to control. It counts as organism-based. More on the design: dose 40 mg/kg, route oral. Particulars: in vivo, 1.5 h.
Data set [2] concerns Rattus norvegicus. The experiment in a line: Antiallodynic activity in CD rat SNL pain model assessed as increase in paw withdrawal threshold at 20 mg/kg, po measured from 30 to 60 mins. It counts as functional, organism-based. On the set-up: dose 20 mg/kg.
Data set [3] deals with Mus musculus. In words: Toxicity against mouse assessed as protection against pentetrazole-induced death at 45 mg/kg. Type of data set: organism-based. On the set-up: dose 45 mg/kg. The note with it: in vivo.
Data set [4] relates to Mus musculus. In words: Toxicity against mouse assessed as protection against maximal-electroshock-induced tonic seizure at 5 mg/kg. It counts as organism-based. Particulars: in vivo. More on the design: dose 5 mg/kg.
Data set [5] deals with Mus musculus. The experiment in a line: Toxicity against mouse assessed as protection against maximal-electroshock-induced tonic seizure at 15 mg/kg. It counts as organism-based. On the set-up: dose 15 mg/kg. Particulars: in vivo.
For data set [6], the system named is Mus musculus. The experiment in a line: Toxicity against mouse assessed as protection against maximal-electroshock-induced tonic seizure at 45 mg/kg. Type of data set: organism-based. On the set-up: dose 45 mg/kg. The note with it: in vivo.
In data set [7] the test system is Rattus norvegicus. In words: Toxicity against CD rat SNL pain model assessed as hypalgesic activity on the contralateral side of paw at 20 mg/kg, po at 90 mins relative to control. More on the design: dose 20 mg/kg, route oral. The note with it: in vivo, 1.5 h. It counts as organism-based.
Data set [8] concerns Rattus norvegicus. In words: Antiallodynic activity in CD rat SNL pain model assessed as increase in paw withdrawal threshold at 20 mg/kg, po measured after 90 mins. It counts as functional, organism-based. On the set-up: dose 20 mg/kg.
The subject of data set [9] is Mus musculus. In words: Toxicity against mouse assessed as protection against pentetrazole-induced death at 5 mg/kg. Type of data set: organism-based. More on the design: dose 5 mg/kg. The note with it: in vivo.
The test system of data set [10] is Mus musculus. The experiment in a line: Toxicity against mouse assessed as protection against pentetrazole-induced death at 15 mg/kg. It counts as organism-based. On the set-up: dose 15 mg/kg. The note with it: in vivo.
Data set [11] relates to Rattus norvegicus. In words: Antiallodynic activity in CD rat SNL pain model assessed as increase in paw withdrawal threshold at 40 mg/kg, po measured from 30 to 180 mins. It counts as functional, organism-based. On the set-up: dose 40 mg/kg.
For data set [12], the system named is Rattus norvegicus. The experiment in a line: Antiallodynic activity in CD rat SNL pain model assessed as increase in paw withdrawal threshold at 20 mg/kg, po measured from 30 to 180 mins. Type of data set: functional, organism-based. On the set-up: dose 20 mg/kg.
Data set [13] has as its system Rattus norvegicus. In words: Antiallodynic activity in CD rat SNL pain model assessed as increase in paw withdrawal threshold at 60 mg/kg, po measured up to 180 mins. Type of data set: functional, organism-based. More on the design: dose 60 mg/kg.
For data set [14], the system named is Rattus norvegicus. In words: Toxicity against rat assessed as somnolence at 30 mg/kg. Type of data set: organism-based. More on the design: dose 30 mg/kg. Particulars: in vivo.
Data set [15] has as its system Rattus norvegicus. The experiment in a line: Antiallodynic activity in CD rat SNL pain model assessed as increase in paw withdrawal threshold at 20 mg/kg, po measured at 90 mins. It counts as functional, organism-based. More on the design: dose 20 mg/kg.

Activity calls are given as the source filed them.

Take `C[Si](C)(C)C[C@@H](CN)CC(=O)O`: the Activity entry with Rattus norvegicus [1], with Mus musculus [3], with Mus musculus [4], with Mus musculus [5], in the data set on Mus musculus [6] and with Rattus norvegicus [7] was “Non-toxic” each time. The Activity entry with Mus musculus [9] and in the data set with Mus musculus [10] was “Non-toxic” each time. Moreover, in the data set with Rattus norvegicus [2], the outcome was Active. The outcome in the data set on Rattus norvegicus [8] was inactive.
As for `C[Si](C)(C)C[C@H](CN)CC(=O)O`, the Activity entry in the data set with Rattus norvegicus [1], in the data set with Mus musculus [3], with Mus musculus [4], in the data set with Mus musculus [5], in the data set on Mus musculus [6] and in the data set on Rattus norvegicus [7] was “Non-toxic” each time. Also, the Activity entry in the data set with Mus musculus [9] and in the data set with Mus musculus [10] was “Non-toxic” in each case. Further, the outcome in the data set on Rattus norvegicus [11] was Active. The result in the data set with Rattus norvegicus [12] was inactive.
For the molecule `C[Si](C)(C)CC(CN)CC(=O)O` (racemic), in the data set on Rattus norvegicus [13], the outcome was Active.
As for `CC(C)C[C@H](CN)CC(=O)O` [PREGABALIN], the Activity entry in the data set on Mus musculus [3], in the data set with Mus musculus [5], with Mus musculus [6], in the data set on Rattus norvegicus [7] and in the data set on Rattus norvegicus [14] was “Toxic” each time. Moreover, the outcome in the data set on Rattus norvegicus [12] and in the data set on Rattus norvegicus [15] was Active.
